Results as given in patent publication US20250248979A1, “NOVEL GPX4 INHIBITORS AND USES THEREOF” (THE TRUSTEES OF COLUMBIA UNIVERSITY IN THE CITY OF NEW YORK, priority 2022, published 2025).

molecular target: T1, GPX4 (Homo sapiens, UniProt P36969); assay: GPX4 activity assay in cell lysates (NADPH-coupled); format: biochemical; parameters: endogenous in cells; host or cells: A-673 cell lysate; details: 20 μM; generation 2
T1 sequence (P36969 1-170 isoform P36969-2): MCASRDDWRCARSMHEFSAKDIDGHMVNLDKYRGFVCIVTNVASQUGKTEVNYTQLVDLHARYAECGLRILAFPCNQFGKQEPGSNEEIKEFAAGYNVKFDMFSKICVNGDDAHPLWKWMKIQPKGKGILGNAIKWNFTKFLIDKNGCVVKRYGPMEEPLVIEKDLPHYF
Experimental: Determination of GPX4 activity in cell lysates was performed as previously described by Roveri et al. 1994 with minor modifications. Briefly, the assay measures the consumption of NADPH, which has a characteristic absorbance at 340 nm, over time as a proxy for GPX4 activity. The rationale for this is that as GPX4 reduces phospholipid hydroperoxides, it oxidizes glutathione, which is then regenerated by glutathione reductase at the expense of NADPH. NADPH is added to the assay in excess such that the reduction of oxidized glutathione is not the rate-limiting reaction in the assay. Thus, the resulting reduction in NADPH absorbance over time reflects GPX4 activity.
The GPX4-specific substrate phosphatidylcholine hydroperoxide (PCOOH) was prepared by enzymatic hydroperoxidation. Specifically, 0.3 mM phosphatidylcholines (Sigma-Aldrich) were incubated with 0.7 mg soybean lipoxidase type IV (Sigma-Aldrich) in 22 mL of 0.2 M Tris-HCl pH 8.8 with 3 mM sodium deoxycholate at room temperature under continuous stirring for 30 minutes. A Sep-Pak C18 cartridge (Waters-Millipore) was pre-washed with methanol and equilibrated with water, then the substrate mixture was loaded. The column was washed with 10 volumes of water and PCOOH was eluted with 2 mL of methanol.
To prepare the cell lysate containing native GPX4, A-673 cells were cultured with 20 nM sodium selenite to confluency over two days then harvested and washed with cold PBS. Cells were then resuspended at 10 million cells per 1 mL LCW lysis buffer (0.5% peroxide-free Triton X-100, 0.5% sodium deoxycholate salt, 150 mM NaCl, 20 mM Tris-HCl pH 7.5, 10 mM EDTA, 30 mM sodium pyrophosphate, and complete protease inhibitor cocktail), vortexed for 30 seconds, and incubated on ice for 15 minutes. After lysis, the lysates were centrifuged at 14,000×g and 4° C. for 15 minutes. The supernatants were transferred to new pre-chilled tube and the debris pellet was discarded. The protein concentration in the lysate was determined for normalization using the BCA Protein Assay Kit (Pierce).
To measure GPX4 activity, 50 μL of cell lysate was combined with 200 μL activity assay buffer (0.1% Triton X-100, 100 mM Tris-HCl pH 8.0, 10 mM sodium azide, 5 mM EDTA, 0.6 IU/mL glutathione reductase, 0.5 mM NADPH and 3 mM GSH) and compounds of interest in a clear 96-well plate and incubated at 37° C. for 45 minutes. Compounds were dissolved in DMSO. All conditions were tested in triplicate. PCOOH substrate was added to the mixture to initiate GPX4 activity just before reading the plate. The absorbance of NADPH at 340 nm was monitored kinetically over time for 25 minutes. Buffer-only controls and controls without substrate containing only the methanol vehicle were performed to assess background and baseline signal. GPX4 activity was calculated as previously reported by Stolwijk et al. 2020 and results were analyzed in GraphPad Prism 9.

Row | SMILES | GPX4% inhibition at 20 (μM)
1 | Cn1nc(C(=O)N2CCN(C(=O)CCl)CC2)c2ccccc21 [QW-370] | 0.5 ± 5.4%
2 | Cc1onc(C(=O)N2CCN(C(=O)c3nn(C)c4ccccc34)CC2)c1[N+](=O)[O-] [QW-371] | 2.9 ± 2.2%
3 | Cn1nc(C(=O)NC(C)(C)COC(=O)C(F)Cl)c2ccccc21 (stereo not drawn) [QW-374] | 1.6 ± 3.0%

same assay, conditions: 200 μM

Row | SMILES | GPX4 inhibition
4 | CC(C)(COC(=O)CCl)NC(=O)c1c[nH]c2ccccc12 [QW-280] | 76%

same assay, conditions: 200 μM; generation 1; mean ± s.d., n = 3

Row | SMILES | GPX4% inhibition at 200 (μM)
5 | COc1cccc2[nH]c(C(=O)NC(C)(C)COC(=O)CBr)cc12 [QW-159] | 56.0 ± 7.3%
6 | CC(C)(COC(=O)CBr)NC(=O)c1cc2ccccc2[nH]1 [QW-160] | 33.3 ± 6.0%
7 | Cc1ccc2[nH]c(C(=O)NC(C)(C)COC(=O)CBr)cc2c1 [QW-161] | 65.0 ± 7.2%
8 | COc1ccc2cc(C(=O)NC(C)(C)COC(=O)CBr)[nH]c2c1 [QW-162] | 103.8 ± 7.6%
9 | CC(C)(COC(=O)CBr)NC(=O)c1cc2cc(Cl)ccc2[nH]1 [QW-165] | 73.9 ± 5.3%
10 | C=CC(=O)OCC(C)(C)NC(=O)c1cc2ccccc2[nH]1 [QW-166] | 1.8 ± 8.0%
11 | C=CC(=O)OCC(C)(C)NC(=O)c1cc2cc(Cl)ccc2[nH]1 [QW-167] | 7.8 ± 12.8%
12 | C=CC(=O)OCC(C)(C)NC(=O)c1cc2c(OC)cccc2[nH]1 [QW-168] | −8.8 ± 10.8%
13 | C=CC(=O)OCC(C)(C)NC(=O)c1cc2ccc(Br)cc2[nH]1 [QW-169] | 14.0 ± 8.6%
14 | C=CC(=O)OCC(C)(C)NC(=O)c1cc2cc(C)ccc2[nH]1 [QW-170] | 5.3 ± 10.0%
15 | C=CC(=O)OCC(C)(C)NC(=O)c1cc2cc([N+](=O)[O-])ccc2[nH]1 [QW-172] | 16.1 ± 16.0%
16 | CC(C)(COC(=O)CCl)NC(=O)c1cccs1 [QW-259] | 27.7 ± 26.1%
17 | CC(C)(COC(=O)CBr)NC(=O)c1cccs1 [QW-260] | 41.1 ± 4.6%
18 | C=CC(=O)OCC(C)(C)NC(=O)c1cccs1 [QW-261] | 23.2 ± 17.0%
19 | Cc1onc(C(=O)OCC(C)(C)NC(=O)c2cccs2)c1[N+](=O)[O-] [QW-262] | −0.6 ± 7.8%
20 | CC(C)(COC(=O)CCl)NC(=O)Cc1cc2ccccc2[nH]1 [QW-265] | 61.2 ± 11.3%
21 | CC(C)(COC(=O)CBr)NC(=O)Cc1cc2ccccc2[nH]1 [QW-266] | 48.8 ± 3.3%
22 | C=CC(=O)OCC(C)(C)NC(=O)Cc1cc2ccccc2[nH]1 [QW-267] | 14.7 ± 5.7%
23 | Cc1onc(C(=O)OCC(C)(C)NC(=O)Cc2cc3ccccc3[nH]2)c1[N+](=O)[O-] [QW-268] | −8.0 ± 15.8%
24 | CC(C)(COC(=O)CCl)NC(=O)CCc1cc2ccccc2[nH]1 [QW-270] | 65.5 ± 1.6%
25 | CC(C)(COC(=O)CBr)NC(=O)CCc1cc2ccccc2[nH]1 [QW-271] | 40.2 ± 5.2%
26 | CC(C)(COC(=O)CCl)NC(=O)c1cc2ccccc2s1 [QW-274] | 27.5 ± 4.4%
27 | CC(C)(COC(=O)CBr)NC(=O)c1cc2ccccc2s1 [QW-275] | 63.1 ± 3.6%
28 | C=CC(=O)OCC(C)(C)NC(=O)c1cc2ccccc2s1 [QW-276] | 5.9 ± 4.4%

Row | SMILES | GPX4% inhibition at 200 (μM)
29 | Cc1onc(C(=O)OCC(C)(C)NC(=O)c2cc3ccccc3s2)c1[N+](=O)[O-] [QW-277] | 12.4 ± 20.1%
30 | CC(C)(COC(=O)CCl)NC(=O)c1c[nH]c2ccccc12 [QW-280] | 75.9 ± 15.5%
31 | CC(C)(COC(=O)CBr)NC(=O)c1c[nH]c2ccccc12 [QW-281] | 58.7 ± 11.5%
32 | C=CC(=O)OCC(C)(C)NC(=O)c1c[nH]c2ccccc12 [QW-282] | 12.7 ± 4.7%
33 | Cc1onc(C(=O)OCC(C)(C)NC(=O)c2c[nH]c3ccccc23)c1[N+](=O)[O-] [QW-283] | −6.6 ± 8.5%
34 | COc1ccc2cc(C(=O)NC(C)(C)CCOC(=O)CCl)[nH]c2c1 [QW-284] | 71.0 ± 22.2%
35 | COc1ccc2cc(C(=O)NC(C)(C)CCOC(=O)CBr)[nH]c2c1 [QW-285] | 77.9 ± 7.6%
36 | C=CC(=O)OCCC(C)(C)NC(=O)c1cc2ccc(OC)cc2[nH]1 [QW-286] | 11.5 ± 7.1%
37 | CC(C)(COC(=O)CCl)NC(=O)c1ccc[nH]1 [QW-290] | 20.6 ± 9.0%
38 | CC(C)(COC(=O)CBr)NC(=O)c1ccc[nH]1 [QW-291] | 20.0 ± 4.0%
39 | C=CC(=O)OCC(C)(C)NC(=O)c1ccc[nH]1 [QW-292] | 7.9 ± 5.3%
40 | Cc1onc(C(=O)OCC(C)(C)NC(=O)c2ccc[nH]2)c1[N+](=O)[O-] [QW-293] | −13.1 ± 14.6%
41 | C=CC(=O)OCCNC(=O)c1cc2ccc(OC)cc2[nH]1 [QW-301] | 3.3 ± 1.2%
42 | COc1ccc2cc(C(=O)NCC(C)(C)COC(=O)CCl)[nH]c2c1 [QW-302] | 68.9 ± 1.8%
43 | O=C(CCl)OCCCNC(=O)c1cc2cc(Cl)ccc2[nH]1 [QW-304] | 78.3 ± 4.3%
44 | C=CC(=O)OCCCNC(=O)c1cc2cc(Cl)ccc2[nH]1 [QW-306] | 6.2 ± 7.5%
45 | COc1ccc2cc(C(=O)NC(C)(C)COC(=O)CCl)n(C)c2c1 [QW-320] | 84.3 ± 9.3%
46 | Cn1c(C(=O)NC(C)(C)COC(=O)CCl)cc2ccc(Br)cc21 [QW-321] | 90.3 ± 4.8%
47 | COc1ccc2[nH]cc(C(=O)NC(C)(C)COC(=O)CCl)c2c1 [QW-322] | 16.0 ± 4.9%
48 | Cn1cc(C(=O)NC(C)(C)COC(=O)CCl)c2ccc(Br)cc21 [QW-325] | 76.6 ± 3.9%
49 | Cn1cc(C(=O)NC(C)(C)COC(=O)C#C[Si](C)(C)C)c2ccc(Br)cc21 [QW-337] | 67.2 ± 3.4%
50 | CC(C)(COC(=O)CCl)NC(=O)c1cc2cc(F)ccc2[nH]1 [QW-338] | 42.6 ± 7.0%
51 | CC(C)(COC(=O)CCl)NC(=O)c1cc2cc(F)c(F)cc2[nH]1 [QW-339] | 43.4 ± 11.5%
52 | CC(C)(COC(=O)CCl)NC(=O)c1cc2ccc(F)cc2[nH]1 [QW-353] | 69.6 ± 6.2%

same assay, conditions: 200 μM; generation 2

Row | SMILES | GPX4% inhibition at 200 (μM)
53 | CC(C)(COC(=O)CCl)NC(=O)c1n[nH]c2ccccc12 [QW-296] | 83.1 ± 21.9%
54 | CC(C)(COC(=O)CBr)NC(=O)c1n[nH]c2ccccc12 [QW-297] | 73.1 ± 14.6%
55 | C=CC(=O)OCC(C)(C)NC(=O)c1n[nH]c2ccccc12 [QW-298] | 7.9 ± 8.2%
56 | Cc1onc(C(=O)OCC(C)(C)NC(=O)c2n[nH]c3ccccc23)c1[N+](=O)[O-] [QW-299] | 6.3 ± 4.7%
57 | COc1ccc2c(C(=O)NC(C)(C)COC(=O)CCl)n[nH]c2c1 [QW-326] | 84.3 ± 8.9%
58 | Cn1nc(C(=O)N2CCN(C(=O)CCl)CC2)c2ccc(Br)cc21 [QW-330] | 33.2 ± 6.8%
59 | Cc1onc(C(=O)OCC(C)(C)NC(=O)c2nn(C)c3ccccc23)c1[N+](=O)[O-] [QW-363] | −15.4 ± 8.4%
60 | C=CC(=O)OCC(C)(C)NC(=O)c1nn(C)c2ccccc12 [QW-366] | −7.3 ± 0.5%
61 | Cn1nc(C(=O)NC(C)(C)COC(=O)C#C[Si](C)(C)C)c2ccccc21 [QW-367] | 7.0 ± 3.9%

same assay, conditions: 200 μM; mean ± s.d., n = 3

Row | SMILES | GPX4% inhibition at 200 (μM)
62 | O=C(c1cc2cc(Cl)ccc2[nH]1)n1ccnc1 [QW-002] | 18.7 ± 15.8%
63 | O=C(c1cc2cc([N+](=O)[O-])ccc2[nH]1)n1ccnc1 [QW-049] | −2.6 ± 14.6%
64 | Cc1ccc2[nH]c(C(=O)n3ccnc3)cc2c1 [QW-056] | 32.7 ± 18.4%
65 | O=C(c1c[nH]c2ccccc12)n1ccnc1 [QW-058] | 37.8 ± 0.9%
66 | O=C(c1cc2ccccc2[nH]1)n1ccnc1 [QW-064] | 31.9 ± 16.6%
